The results in this text go back to ChEMBL document CHEMBL4619804, “Target-Based Identification and Optimization of 5-Indazol-5-yl Pyridones as Toll-like Receptor 7 and 8 Antagonists Using a Biochemical TLR8 Antagonist Competition Assay” (J Med Chem, 2020).

The target of test [1] is T1, Toll-like receptor 9 (Homo sapiens, UniProt Q9NR96).
T1 sequence (Q9NR96 whole entry): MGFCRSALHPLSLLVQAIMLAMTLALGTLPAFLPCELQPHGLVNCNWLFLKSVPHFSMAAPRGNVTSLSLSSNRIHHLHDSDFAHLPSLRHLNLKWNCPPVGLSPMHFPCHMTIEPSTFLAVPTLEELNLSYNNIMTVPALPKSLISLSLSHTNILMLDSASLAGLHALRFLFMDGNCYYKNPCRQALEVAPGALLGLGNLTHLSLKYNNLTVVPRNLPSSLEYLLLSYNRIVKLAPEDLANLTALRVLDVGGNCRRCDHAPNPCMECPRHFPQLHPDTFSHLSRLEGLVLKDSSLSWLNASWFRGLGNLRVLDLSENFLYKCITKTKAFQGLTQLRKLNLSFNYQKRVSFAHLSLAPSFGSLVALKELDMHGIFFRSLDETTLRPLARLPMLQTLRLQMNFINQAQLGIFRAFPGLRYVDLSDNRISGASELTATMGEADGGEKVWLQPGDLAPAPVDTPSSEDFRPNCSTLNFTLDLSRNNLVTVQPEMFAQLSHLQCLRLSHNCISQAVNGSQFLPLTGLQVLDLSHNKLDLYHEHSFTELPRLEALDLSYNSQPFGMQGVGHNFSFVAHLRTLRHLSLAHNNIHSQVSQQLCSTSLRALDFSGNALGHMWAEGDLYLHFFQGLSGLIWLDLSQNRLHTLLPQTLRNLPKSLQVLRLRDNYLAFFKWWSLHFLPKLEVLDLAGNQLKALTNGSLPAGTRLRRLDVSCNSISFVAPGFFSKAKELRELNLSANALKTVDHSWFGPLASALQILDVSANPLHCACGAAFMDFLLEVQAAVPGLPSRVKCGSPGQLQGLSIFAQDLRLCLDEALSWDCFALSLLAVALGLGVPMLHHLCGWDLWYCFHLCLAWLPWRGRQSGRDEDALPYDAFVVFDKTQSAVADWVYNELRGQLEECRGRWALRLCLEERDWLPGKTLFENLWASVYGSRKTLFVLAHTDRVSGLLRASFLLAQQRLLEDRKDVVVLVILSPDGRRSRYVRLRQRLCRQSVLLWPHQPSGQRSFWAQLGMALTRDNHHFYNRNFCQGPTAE
In words: Antagonist activity at TLR9 in human PBMC assessed as inhibition of ODN2216-induced IFNalpha production preincubated for 30 mins followed by ODN2216 addition and measured after 20 hrs by alphaLISA. Type of test: cell-based.

The target in another test is T2, Toll-like receptor 7 (Mus musculus, UniProt P58681).
T2 sequence (P58681 whole entry): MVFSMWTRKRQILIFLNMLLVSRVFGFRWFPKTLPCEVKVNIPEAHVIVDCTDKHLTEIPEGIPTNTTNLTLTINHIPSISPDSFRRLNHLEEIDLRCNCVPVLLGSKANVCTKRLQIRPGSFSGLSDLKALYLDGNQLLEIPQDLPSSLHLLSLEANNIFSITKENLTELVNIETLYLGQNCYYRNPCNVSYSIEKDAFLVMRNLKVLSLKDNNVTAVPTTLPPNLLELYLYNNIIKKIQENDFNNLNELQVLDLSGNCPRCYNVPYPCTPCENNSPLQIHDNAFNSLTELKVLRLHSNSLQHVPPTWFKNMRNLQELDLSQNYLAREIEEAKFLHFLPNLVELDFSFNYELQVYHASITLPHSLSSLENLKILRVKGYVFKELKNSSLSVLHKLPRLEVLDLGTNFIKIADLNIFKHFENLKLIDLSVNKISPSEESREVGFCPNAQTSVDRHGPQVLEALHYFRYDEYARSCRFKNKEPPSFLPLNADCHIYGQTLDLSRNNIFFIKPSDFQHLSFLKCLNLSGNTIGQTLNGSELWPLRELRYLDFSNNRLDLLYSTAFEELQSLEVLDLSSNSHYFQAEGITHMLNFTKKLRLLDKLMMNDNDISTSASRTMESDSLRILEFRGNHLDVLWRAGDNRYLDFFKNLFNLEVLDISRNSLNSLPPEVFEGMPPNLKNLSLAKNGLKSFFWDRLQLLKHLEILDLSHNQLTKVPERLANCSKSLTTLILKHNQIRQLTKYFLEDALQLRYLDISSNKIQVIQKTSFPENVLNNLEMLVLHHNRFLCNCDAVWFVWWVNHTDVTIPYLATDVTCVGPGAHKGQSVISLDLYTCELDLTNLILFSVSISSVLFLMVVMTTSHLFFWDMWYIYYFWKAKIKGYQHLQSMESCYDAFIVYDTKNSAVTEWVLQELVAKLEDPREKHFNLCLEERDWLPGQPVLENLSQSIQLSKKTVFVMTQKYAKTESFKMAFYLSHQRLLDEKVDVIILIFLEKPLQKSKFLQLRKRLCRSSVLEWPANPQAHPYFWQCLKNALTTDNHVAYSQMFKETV
In words: Antagonist activity at TLR7 in mouse whole blood assessed as inhibition of DOTAP-ssRNA40 induced IFNalpha production preincubated for 30 mins followed by ssRNA40 addition measured after 20 hrs by ELISA. Type of test: tissue-based. For orientation: In an ELISA, binding on a coated surface is turned into a signal by an enzyme label.

Another test concerns the target Toll-like receptor 4 (Homo sapiens, UniProt O00206). In words: Antagonist activity at TLR4 in human PBMC assessed as inhibition of LPS-induced TNFalpha production preincubated for 30 mins followed by LPS addition and measured after 20 hrs by HTRF assay. In kind it is cell-based.
The target of a further test is Toll-like receptor 5 (Homo sapiens, UniProt O60602). In words: Antagonist activity at TLR5 in human PBMC assessed as inhibition of flagellin-induced TNFalpha production preincubated for 30 mins followed by flagellin addition and measured after 20 hrs by HTRF assay. In kind it is cell-based.
The target in the next test is Toll-like receptor 2 (Homo sapiens, UniProt O60603). In words: Antagonist activity at TLR2 in human PBMC assessed as inhibition of Pam3CSK4-induced TNFalpha production preincubated for 30 mins followed by Pam3CSK4 addition and measured after 20 hrs by HTRF assay. Type of test: cell-based. A general note: In TR-FRET formats the signal depends on donor and acceptor labels being close together.

The target in test [2] is T1, Toll-like receptor 9. In words: Antagonist activity at TLR9 in human whole blood inhibition of DOTAP-ODN2216-induced IFNalpha production preincubated for 30 mins followed by DOTAP-ODN2216 addition and measured after 20 hrs by ELISA. In kind it is tissue-based.

Sequence of Toll-like receptor 5 (O60602 whole entry): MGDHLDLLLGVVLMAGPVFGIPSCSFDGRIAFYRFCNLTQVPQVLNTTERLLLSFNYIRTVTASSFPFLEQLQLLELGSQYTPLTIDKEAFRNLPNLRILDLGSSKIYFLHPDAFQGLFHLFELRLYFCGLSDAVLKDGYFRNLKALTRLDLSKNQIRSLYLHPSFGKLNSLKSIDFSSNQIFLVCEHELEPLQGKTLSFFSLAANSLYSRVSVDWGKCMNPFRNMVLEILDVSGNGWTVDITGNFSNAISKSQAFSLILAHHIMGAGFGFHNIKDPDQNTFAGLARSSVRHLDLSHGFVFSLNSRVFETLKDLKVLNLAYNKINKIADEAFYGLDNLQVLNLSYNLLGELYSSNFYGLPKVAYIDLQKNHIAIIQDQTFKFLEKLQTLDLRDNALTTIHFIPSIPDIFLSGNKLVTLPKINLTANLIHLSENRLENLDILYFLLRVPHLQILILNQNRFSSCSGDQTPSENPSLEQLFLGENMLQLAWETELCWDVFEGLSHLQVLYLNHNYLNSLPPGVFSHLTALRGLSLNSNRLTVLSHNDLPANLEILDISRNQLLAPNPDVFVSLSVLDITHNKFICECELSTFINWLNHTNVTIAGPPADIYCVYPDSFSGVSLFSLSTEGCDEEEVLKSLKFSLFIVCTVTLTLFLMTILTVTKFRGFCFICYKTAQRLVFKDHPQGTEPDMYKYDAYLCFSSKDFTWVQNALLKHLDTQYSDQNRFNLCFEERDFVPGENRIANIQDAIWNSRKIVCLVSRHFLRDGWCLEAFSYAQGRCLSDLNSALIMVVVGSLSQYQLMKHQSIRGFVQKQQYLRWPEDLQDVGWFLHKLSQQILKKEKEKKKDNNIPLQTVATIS
Sequence of Toll-like receptor 4 (O00206 whole entry): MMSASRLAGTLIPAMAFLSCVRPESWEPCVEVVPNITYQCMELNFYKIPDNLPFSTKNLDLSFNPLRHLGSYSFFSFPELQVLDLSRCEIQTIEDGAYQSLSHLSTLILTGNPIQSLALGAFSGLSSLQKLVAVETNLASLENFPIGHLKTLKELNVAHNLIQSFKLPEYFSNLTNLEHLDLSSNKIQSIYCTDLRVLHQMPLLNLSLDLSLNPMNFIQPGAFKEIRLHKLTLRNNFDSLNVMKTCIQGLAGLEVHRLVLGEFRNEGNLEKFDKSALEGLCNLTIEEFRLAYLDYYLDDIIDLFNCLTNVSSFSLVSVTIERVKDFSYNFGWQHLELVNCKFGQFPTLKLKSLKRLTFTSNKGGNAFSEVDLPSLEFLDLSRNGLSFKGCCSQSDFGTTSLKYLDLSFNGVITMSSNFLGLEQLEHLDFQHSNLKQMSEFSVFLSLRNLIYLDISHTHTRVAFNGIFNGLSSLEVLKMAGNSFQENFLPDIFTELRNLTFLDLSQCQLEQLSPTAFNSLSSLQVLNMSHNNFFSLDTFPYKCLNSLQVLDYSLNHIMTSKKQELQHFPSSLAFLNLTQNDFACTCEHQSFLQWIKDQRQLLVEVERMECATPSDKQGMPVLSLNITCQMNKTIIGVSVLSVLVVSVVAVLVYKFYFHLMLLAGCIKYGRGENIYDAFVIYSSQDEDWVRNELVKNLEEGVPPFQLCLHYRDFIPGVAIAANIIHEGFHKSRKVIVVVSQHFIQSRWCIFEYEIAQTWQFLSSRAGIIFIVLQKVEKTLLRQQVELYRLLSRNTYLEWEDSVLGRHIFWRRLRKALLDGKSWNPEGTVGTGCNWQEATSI
Sequence of Toll-like receptor 2 (O60603 whole entry): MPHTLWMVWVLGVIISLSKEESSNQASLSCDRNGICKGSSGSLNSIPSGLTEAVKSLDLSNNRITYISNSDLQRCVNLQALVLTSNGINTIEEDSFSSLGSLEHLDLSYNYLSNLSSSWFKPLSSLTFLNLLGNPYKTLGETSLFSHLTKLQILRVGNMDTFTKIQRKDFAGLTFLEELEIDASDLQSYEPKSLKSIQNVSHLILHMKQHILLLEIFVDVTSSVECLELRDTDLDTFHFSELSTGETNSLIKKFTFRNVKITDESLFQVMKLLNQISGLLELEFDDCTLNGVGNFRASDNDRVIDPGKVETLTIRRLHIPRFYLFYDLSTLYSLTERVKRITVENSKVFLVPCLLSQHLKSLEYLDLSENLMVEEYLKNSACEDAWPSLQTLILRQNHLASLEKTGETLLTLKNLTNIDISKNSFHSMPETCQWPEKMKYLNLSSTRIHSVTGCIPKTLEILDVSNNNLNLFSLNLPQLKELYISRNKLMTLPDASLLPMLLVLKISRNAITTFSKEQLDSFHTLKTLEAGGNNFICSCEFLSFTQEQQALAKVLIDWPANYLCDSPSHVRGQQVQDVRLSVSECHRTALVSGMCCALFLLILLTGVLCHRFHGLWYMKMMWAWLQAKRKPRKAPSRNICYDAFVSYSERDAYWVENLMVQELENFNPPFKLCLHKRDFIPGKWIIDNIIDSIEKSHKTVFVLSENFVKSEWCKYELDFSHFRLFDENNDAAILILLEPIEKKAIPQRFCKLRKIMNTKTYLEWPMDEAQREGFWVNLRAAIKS

One may read the IC50 as the concentration that inhibits the measured activity by half. Take `O=c1ccc(-c2cc(C(F)(F)F)c3nn([C@H]4CCNC[C@@H]4F)cc3c2)c2n1CCC2`: the half-inhibitory concentration (IC50) on Toll-like receptor 9 [1] was more than 5.3 µM; at Toll-like receptor 7, 0.18 µM; at Toll-like receptor 4, more than 6.5 µM; on Toll-like receptor 5, more than 6.5 µM; at Toll-like receptor 2, more than 6.5 µM; at Toll-like receptor 9 [2], more than 10 µM.
